In patent publication EP0183129A1, “Quinolonecarboxylic acid derivatives” (KYORIN PHARMACEUTICAL CO., LTD., priority 1984, dated 1986):
Values after ≈ are worked out from the molar mass of the structure shown. Counter-ions that a name gives are not always drawn. Like-named read-outs stand apart in the source and are kept apart here.

Assays:
K. pneumoniae 1-220S = test: In vitro antibacterial activity, MIC (standard strain); type: cell-based; details: Klebsiella pneumoniae, 1220S; K. pneumoniae 1-220S; 10^6 cells/ml; standard strain; read-out: MIC
S. faecalis IID 682 = test: as above; type: cell-based; details: Enterococcus faecalis, IID682; S. faecalis IID 682; 10^6 cells/ml; standard strain; read-out: MIC
S. faecalis 402 = test: In vitro antibacterial activity, MIC (clinical isolates); type: cell-based; details: Enterococcus faecalis; S. faecalis 402; 10^6 cells/ml; clinical isolate; read-out: MIC
[1] = test system: Enterobacter cloacae IID 977; test: In vitro antibacterial activity, MIC (standard strain); type: cell-based; details: Enterobacter cloacae, IID977, Enterobacter cloacae IID 977; 10^6 cells/ml; standard strain; read-out: MIC
[2] = test system: Escherichia coli NIHJ JC-2; test: as above; type: cell-based; details: Escherichia coli
[3] = test system: Bacteroides fragilis GM 7000; test: as above; type: cell-based; details: GM7000; Bacteroides fragilis GM 7000; 10^6 cells/ml; standard strain; read-out: MIC
S. pyogenes 4340 = test: In vitro antibacterial activity, MIC (clinical isolates); type: cell-based; details: Streptococcus pyogenes; S. pyogenes 4340; 10^6 cells/ml; clinical isolate; read-out: MIC
[4] = test system: Morganella morganii IID 602; test: In vitro antibacterial activity, MIC (standard strain); type: cell-based; details: IID602; Morganella morganii IID 602; 10^6 cells/ml; standard strain; read-out: MIC
[5] = test system: Serratia marcescens IID 618; test: as above; type: cell-based; details: Serratia marcescens, IID618, Serratia marcescens IID 618; 10^6 cells/ml; standard strain; read-out: MIC
S. pyogenes 3107 = test: In vitro antibacterial activity, MIC (clinical isolates); type: cell-based; details: Streptococcus pyogenes; S. pyogenes 3107; 10^6 cells/ml; clinical isolate; read-out: MIC
[6] = test system: Citrobacter freundii IID 976; test: In vitro antibacterial activity, MIC (standard strain); type: cell-based; details: IID976; Citrobacter freundii IID 976; 10^6 cells/ml; standard strain; read-out: MIC
[7] = test system: Acinetobacter anitratus IID 876; test: as above; type: cell-based; details: Acinetobacter calcoaceticus, IID876, Acinetobacter anitratus IID 876; 10^6 cells/ml; standard strain; read-out: MIC
S. aureus Smith = test: as above; type: cell-based, Staphylococcus aureus; details: Staphylococcus aureus, S. aureus Smith, 10^6 cells/ml, standard strain
E. coli ML4707 = test: In vivo antibacterial activity against systemic infection in mice; parameters: species or system mice (ICR-S); details: Escherichia coli, ML4707; mice (ICR-S); oral, an hour after intraperitoneal infection; challenge dose 2.7 x 10^6 ~ 8.8 x 10^6 cfu/mouse; read-out: ED50 E. coli ML4707
Procedure: Experiment-2 In vivo antibacterial activity against systemic infection in mice (ICR-S)
The infections were produced by intraperitoneal injection of a suspension of the bacterial culture corresponding to the germ studied. The products were administered orally at an hour after the infection.

S. pneumoniae 3227 = test: In vitro antibacterial activity, MIC (clinical isolates); type: cell-based; details: Streptococcus pneumoniae; S. pneumoniae 3227; 10^6 cells/ml; clinical isolate; read-out: MIC
[8] = test system: Salmonella entritidis IID 604; test: In vitro antibacterial activity, MIC (standard strain); type: cell-based; details: IID604; Salmonella entritidis IID 604; 10^6 cells/ml; standard strain; read-out: MIC
B. fragilis 0558 = test: as above; type: cell-based, Bacteroides fragilis; details: Bacteroides fragilis, 0558, B. fragilis 0558; 10^6 cells/ml; standard strain; read-out: MIC
S. faecalis 49 = test: In vitro antibacterial activity, MIC (clinical isolates); type: cell-based; details: Enterococcus faecalis; S. faecalis 49; 10^6 cells/ml; clinical isolate; read-out: MIC
S. faecalis 401 = test: as above; type: cell-based; details: Enterococcus faecalis; S. faecalis 401; 10^6 cells/ml; clinical isolate; read-out: MIC
S. agalactiae 4470 = test: as above; type: cell-based; details: Streptococcus agalactiae; S. agalactiae 4470; 10^6 cells/ml; clinical isolate; read-out: MIC
M. pneumoniae Mac. = test: In vitro antibacterial activity against Mycoplasma, MIC; type: cell-based; details: Mycoplasmoides pneumoniae, 120 h; M. pneumoniae Mac.; no visible growth after incubation for 5 days; read-out: MIC
Description: Experiment-3 In vitro antibacterial activity against Mycoplasma

S. agalactiae 4342 = test: In vitro antibacterial activity, MIC (clinical isolates); type: cell-based; details: Streptococcus agalactiae; S. agalactiae 4342; 10^6 cells/ml; clinical isolate; read-out: MIC
S. faecalis 214 = test: as above; type: cell-based; details: Enterococcus faecalis; S. faecalis 214; 10^6 cells/ml; clinical isolate; read-out: MIC
S. pneumoniae 2054 = test: as above; type: cell-based; details: Streptococcus pneumoniae; S. pneumoniae 2054; 10^6 cells/ml; clinical isolate; read-out: MIC
S. agalactiae 4394 = test: as above; type: cell-based; details: Streptococcus agalactiae; S. agalactiae 4394; 10^6 cells/ml; clinical isolate; read-out: MIC
S. pyogenes 3130 = test: as above; type: cell-based; details: Streptococcus pyogenes, read-out: MIC
S. pneumoniae 28 = test: as above; type: cell-based; details: Streptococcus pneumoniae, 10^6 cells/ml, clinical isolate
S. pneumoniae 24 = test: as above; type: cell-based; details: Streptococcus pneumoniae; S. pneumoniae 24; 10^6 cells/ml; clinical isolate; read-out: MIC
C. difficile I-E = test: In vitro antibacterial activity, MIC (standard strain); type: cell-based; details: Clostridioides difficile; C. difficile I-E; 10^6 cells/ml; standard strain; read-out: MIC
[9] = NIHJJC2, Escherichia coli NIHJ JC-2, 10^6 cells/ml, standard strain, read-out: MIC

Row | Compound | MIC (K. pneumoniae 1-220S) [µg/mL] | MIC (S. faecalis IID 682) [µg/mL] | MIC (S. faecalis 402) [µg/mL] | MIC [1] [µg/mL] | MIC [3] [µg/mL] | MIC (S. pyogenes 4340) [µg/mL] | MIC [4] [µg/mL] | MIC [5] [µg/mL] | MIC (S. pyogenes 3107) [µg/mL] | MIC [6] [µg/mL] | MIC [7] [µg/mL] | MIC (S. pneumoniae 3227) [µg/mL] | MIC [8] [µg/mL] | MIC (B. fragilis 0558) [µg/mL] | MIC (S. faecalis 49) [µg/mL] | MIC (S. faecalis 401) [µg/mL] | MIC (S. agalactiae 4470) [µg/mL] | MIC (S. agalactiae 4342) [µg/mL] | MIC (S. faecalis 214) [µg/mL] | MIC (S. pneumoniae 2054) [µg/mL] | other results
1 | CCNCC1CCN(c2c(F)cc3c(=O)c(C(=O)O)cn(CC)c3c2F)C1 (stereo not shown) [Ref.1, 1-Ethyl-7-(3-ethylaminomethyl-1-pyrrolidinyl)-6,8-difluoro-1,4-dihydro-4-oxo-3-quinolinecarboxylic acid, reference compound] | 0.39 (≈ 1.03 µM) | 0.2 (≈ 0.527 µM) | 0.78 (≈ 2.06 µM) | 0.2 (≈ 0.527 µM) | 12.5 (≈ 32.9 µM) | 0.2 (≈ 0.527 µM) | 0.78 (≈ 2.06 µM) | 0.39 (≈ 1.03 µM) | 0.1 (≈ 0.264 µM) | 0.2 (≈ 0.527 µM) | 0.78 (≈ 2.06 µM) | 0.39 (≈ 1.03 µM) | 0.39 (≈ 1.03 µM) | 6.25 (≈ 16.5 µM) | 0.39 (≈ 1.03 µM) | 0.39 (≈ 1.03 µM) | 0.39 (≈ 1.03 µM) | 0.39 (≈ 1.03 µM) | 0.39 (≈ 1.03 µM) | 0.39 (≈ 1.03 µM) | MIC [2, 9]: 0.1 µg/mL (≈ 0.264 µM); MIC (S. aureus Smith; read-out: MIC): 0.1 µg/mL (≈ 0.264 µM); ED50 (E. coli ML4707): > 10 mg/kg; MIC (M. pneumoniae Mac.): 0.39 µg/mL (≈ 1.03 µM); MIC (S. agalactiae 4394): 0.78 µg/mL (≈ 2.06 µM); MIC (S. pyogenes 3130): 0.2 µg/mL (≈ 0.527 µM)
2 | NCC1CCN(c2c(F)cc3c(=O)c(C(=O)O)cn(C4CC4)c3c2Cl)C1 (stereo not drawn) [Example 14, 8-Chloro-l-cyclopropyl-6-fluoro-l,4-dihydro-7-(3-aminomethyl-l-pyrrolidinyl)-4-oxo-3-quinolinecarboxylic acid hydrochloride] | 0.05 | 0.05 | 0.05 | 0.05 | 0.1 | 0.05 | 0.05 | 0.05 | 0.025 | 0.025 | 0.05 | 0.05 | 0.025 | 0.05 | 0.05 | 0.05 | 0.05 | 0.05 | 0.05 | 0.05 | MIC ([2]; NIHJJC2): 0.0125 µg/mL; MIC (S. pneumoniae 28): 0.05 µg/mL; MIC (S. aureus Smith): 0.0125 µg/mL; ED50 (E. coli ML4707): 5.4 mg/kg; MIC (S. agalactiae 4394): 0.1 µg/mL; MIC (S. pyogenes 3130): 0.025 µg/mL; MIC (S. pneumoniae 24): 0.05 µg/mL
3 | CC(C)NCC1CCN(c2c(F)cc3c(=O)c(C(=O)O)cn(C4CC4)c3c2F)C1.Cl (stereo not shown) [Example 11, 1-Cyclopropyl-6,8-difluoro-1,4-dihydro-7-(3-isopropylaminomethyl-1-pyrrolidinyl)-4-oxo-3-quinolinecarboxylic acid hydrochloride] | 0.2 | 0.39 | 0.39 | 0.39 | 1.56 | 0.2 | 0.39 | 0.39 | 0.2 | 0.1 | 0.1 | 0.39 | 0.2 | 0.78 | 0.2 | 0.39 | 0.2 | 0.2 | 0.39 | 0.2 | MIC (C. difficile I-E): 3.13 µg/mL; MIC [2, 9]: 0.05 µg/mL; MIC (S. aureus Smith; read-out: MIC): 0.05 µg/mL; MIC (S. agalactiae 4394): 0.39 µg/mL; MIC (S. pyogenes 3130): 0.2 µg/mL
4 | CCNCC1CCN(c2cc3c(cc2F)c(=O)c(C(=O)O)cn3C2CC2)C1.Cl (stereo not shown) [Example 7, 1-Cyclopropyl-7-(3-ethylaminomethyl-1-pyrrolidinyl)-6-fluoro-1,4-dihydro-4-oxo-3-quinolinecarboxylic acid hydrochloride] | 0.2 | 0.39 | 0.78 | 0.39 | 25 | 0.2 | 0.39 | 0.39 | 0.2 | 0.1 | 0.78 | 0.39 | 0.2 | 25 | 0.78 | 0.78 | 0.39 | 0.39 | 0.78 | 0.39 | MIC (C. difficile I-E): 12.5 µg/mL; MIC [2, 9]: 0.05 µg/mL; MIC (S. aureus Smith; read-out: MIC): 0.1 µg/mL; MIC (S. agalactiae 4394): 0.39 µg/mL; MIC (S. pyogenes 3130): 0.2 µg/mL
